# Paper PMC9322052, “Synthesis and Biological Activity Screening of Newly Synthesized Trimethoxyphenyl-Based Analogues as Potential Anticancer Agents” (Molecules, 2022)
# Tests used:
# [1] = tested on: HepG2 cells; test: Mitochondrial membrane potential by flow cytometry; assay type: cell-based, human; details: HepG2, 1.38 μM (IC50), 48 h
# Experimental: Mitochondrial Membrane Potential (MMP) plays a vital role in the initiation of the apoptosis process. Loss of MMP is characteristic of an early stage of apoptosis.
# MMP was measured by flow cytometry analysis in HepG2 cells according to the manufacturer’s directions. See Section 3.3.5 in Supplementary Material.
# Figure 5 Compound 9 promotes MMP dissipation in HepG2 cells. (A) HepG2 cells were treated with 1.38 μM of compound 9 for 48 h. MMP was quantized using image-based flow cytometry. (B) The quantification of MMP in HepG2 cells after treatment with compound 9 at its IC50 concentration (μM). […]
# (§1) To measure the cytotoxic activity of the synthesized derivatives 2a-11 in hepatocel-lular carcinoma (HepG2) cell line (ATCC Cat No. HB-8065) as well as normal human liver cell line HL-7702 (ATCC Cat. No. 77402), cell viability assay was assessed using MTT assay method. […] The color inten-sity of the formazan product, which represents the growth condition of the cells, is quan-tified by using an ELISA plate reader (EXL 800, USA) at 570 nm absorbance. […]
# Compounds 9, 10 and 11 were evaluated for their tubulin inhibitory activity levels according to the manufacturer’s instructions using # abcam Human Beta-tubulin simplestep […]
# [2] = tested on: Bcl-2; test: ELISA quantification of Bcl-2 level; assay type: cell-based, human; details: HepG2, 1.38 μM (IC50), 48 h
# Experimental: Compound 9 was screened for its ability to activate p53 and Bax as well as downregulate the level of Bcl-2 to investigate the mechanistic apoptotic pathway that catalyzed the apoptosis process. HepG2 cells were treated with compound 9 at a concentration equal to its IC50 in μM, and the level of p53, Bax, and Bcl-2 was quantized using ELISA analysis. The results obtained for compound 9 show the increase in the level of p53 and Bax by 8.91- and 4.50-fold, respectively, compared with the negative control samples.
# Apoptotic markers (p53, Bax and Bcl-2) were measured in HepG2 cells using ELISA analysis according to the manufacturer’s directions. See Section 3.3.6 in Supplementary Material.
# Figure 6 (A) The quantification of p53. (B) The quantification of Bax. (C) The quantification of Bcl-2. HepG2 cells were treated with 1.38 μM of compound 9 for 48 h and apoptotic markers were determined by ELISA assay.
# 3.3.1. Cytotoxic activity evaluation
# as §1
structure (smiles),measurement,setting,value
"COc1ccc(C2=N/C(=C\c3cc(OC)c(OC)c(OC)c3)C(=O)NN2c2ccccc2)cc1OC [Compound 9, (Z)-3-(3,4-Dimethoxyphenyl)-2-Phenyl-5-(3,4,5-Trimethoxybenzylidene)-1,2-Dihydro-1,2,4-Triazin-6(5H)-one]",decrease in level of MMP compared with negative HepG2 cells,[1],3.12 fold
same,decrease in level of Bcl-2 compared with negative control,[2],5.58 fold
